Usually IC50 stands for the point on the concentration scale where inhibition reaches its midpoint.

Assay [1] concerns ^3 H-Dopamine release, rat striatal slices. The assay can be described thus: Ligand-stimulated ^3 H-dopamine release from rat striatal slices. The following applies: in vitro slices, 300 μM. The assay is classed as cell-based. Here is the method: (§1) Measurement of ^3 H-dopamine release from rat striatal slices was performed according to the method of Sacaan et al. (J. Neurochem. 59:245 (1992)). Male Sprague-Dawley rats (250-300 g) were decapitated and the striata or olfactory tubercles dissected quickly on a cold glass surface. The tissue was chopped to a thickness of 300 μm with a McIlwain tissue chopper. After chopping again at right angles the tissue was dispersed and incubated for 10 min. at 37° C. in oxygenated Kreb's buffer. ^3 H-Dopamine (40 Ci/mmol, NEN- Dupont, Boston, Mass.) was added (50 nM) and the tissue was incubated for 30 min. in Kreb's buffer containing 10 μM pargyline and 0.5 mM ascorbic acid. Aliquots of the minced tissue were then transferred to chambers of a Brandel Superfusion system in which the tissue was supported on Whatman GF/B filter discs. The tissue was then superfused with buffer at a constant flow rate of 0.3 ml/min by means of a Brandel peristaltic pump. The perfusate was collected in plastic scintillation vials in 3-min fractions, and the radioactivity was estimated by scintillation spectrophotometry. The superfusate for the first 120 min was discarded. After two baseline fractions had been collected, the superfusion buffer was switched to fresh buffer with or without compound of interest. At the end of the experiment the filter and the tissue were removed, and the radiolabeled neurotransmitter content was estimated after extraction into scintillation fluid. The fractional efflux of radiolabeled neurotransmitter was estimated as the amount of radioactivity in the perfusate fraction relative to the total amount in the tissue.
(§2) Results of studies of the effects of an invention compound (as compared to the effect of nicotine) on the release of neurotransmitters from rat brain slices are presented in Table II. Results presented in Part A of the Table are expressed as the percent fractional release and results presented in Part B of the Table are expressed as a percentage, relative to nicotine response.

The subject of assay [2] is ^3 H-Norepinephrine release, rat hippocampus slices. Nature of the assay: Ligand-stimulated ^3 H-norepinephrine release from rat hippocampus slices. The note with it: in vitro slices, 300 μM. It is filed as cell-based. Here is the method: as §1
(§3) Following essentially the same procedure as set forth above, the amount of ^3 H-norepinephrine released from rat hippocampus, thalamus and prefrontal cortex slices superfused with buffer containing (or lacking) compounds of interest was also measured.
as §2

The subject of assay [3] is ^3 H-Norepinephrine release, rat thalamus slices. Nature of the assay: Ligand-stimulated ^3 H-norepinephrine release from rat thalamus slices. The assay is classed as cell-based. The note with it: in vitro slices, 300 μM. The method, then:
as §1, §3, §2

Assay [4] deals with ^3 H-Norepinephrine release, rat prefrontal cortex slices. The assay can be described thus: Ligand-stimulated ^3 H-norepinephrine release from rat prefrontal cortex slices. The assay is classed as cell-based. The following applies: in vitro slices, 300 μM. The method, then:
as §1, §3, §2

Assay [5] concerns ^3 H-Dopamine release, rat olfactory tubercles. The assay can be described thus: Ligand-stimulated ^3 H-dopamine release from rat olfactory tubercles. It is filed as cell-based. The following applies: in vitro slices, 300 μM. The method, then:
as §1, §2

A further assay deals with rats. Nature of the assay: Locomotor activity assay. The following applies: Rattus norvegicus, sc, 20 mg/kg, s.c. The assay is classed as in vivo, rat (male Sprague-Dawley). Here is the method: This assay can be used to assess the primary effect of a compound on general motor activity. A decrease in locomotor activity is indicative of a possible sedative effect on the animal, whereas an increase in locomotor activity is indicative of a stimulant effect on the animal.
Locomotor activity of rats (male Sprague-Dawley (Harlan) weighing 200-250 gm) was measured for 2 hrs in photocell cages immediately after administration of the invention compound. Prior to the test day, the animals were placed in the activity cages for 3 hrs to familiarize them with the experimental environment. On the test day, the animals were placed in the photocell cages and then injected with compound 1.5 hrs later.
The photocell cages were standard rodent cages (30 cm×20 cm×40 cm) with four infrared beams crossing the long axis. The animals were under no motivational constraints and were free to move around. Movements from one infrared beam to another (ambulation) were called "crossover"; successive interruptions of the same beam (vertical and other movements such as grooming) were called "general activity."

The target of assay [6] is T1, nicotinic acetylcholine receptor (Rattus norvegicus, UniProt P09483+P12390).
T1 construct: the brains removed and the cerebral cortex dissected on ice; from tissue; host or cells: cerebral cortex synaptic membranes of male Sprague-Dawley rats
T1 sequence (P09483 31-630): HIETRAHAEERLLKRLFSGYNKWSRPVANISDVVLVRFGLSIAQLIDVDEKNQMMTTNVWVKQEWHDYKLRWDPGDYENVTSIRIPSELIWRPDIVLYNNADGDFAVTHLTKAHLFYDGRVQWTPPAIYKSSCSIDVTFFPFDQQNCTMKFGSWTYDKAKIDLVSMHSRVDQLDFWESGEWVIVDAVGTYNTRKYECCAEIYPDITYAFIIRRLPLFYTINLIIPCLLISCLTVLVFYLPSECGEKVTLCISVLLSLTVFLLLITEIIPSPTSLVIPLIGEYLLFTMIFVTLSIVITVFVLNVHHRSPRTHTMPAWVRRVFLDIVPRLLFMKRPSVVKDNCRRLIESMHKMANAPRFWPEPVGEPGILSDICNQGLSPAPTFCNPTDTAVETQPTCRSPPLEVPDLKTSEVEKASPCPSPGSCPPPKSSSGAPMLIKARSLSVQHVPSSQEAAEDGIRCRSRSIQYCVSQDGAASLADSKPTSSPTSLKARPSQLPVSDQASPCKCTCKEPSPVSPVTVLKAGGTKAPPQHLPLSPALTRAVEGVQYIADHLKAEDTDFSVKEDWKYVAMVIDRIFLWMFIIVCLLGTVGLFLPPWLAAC
T1 sequence (P12390 25-500): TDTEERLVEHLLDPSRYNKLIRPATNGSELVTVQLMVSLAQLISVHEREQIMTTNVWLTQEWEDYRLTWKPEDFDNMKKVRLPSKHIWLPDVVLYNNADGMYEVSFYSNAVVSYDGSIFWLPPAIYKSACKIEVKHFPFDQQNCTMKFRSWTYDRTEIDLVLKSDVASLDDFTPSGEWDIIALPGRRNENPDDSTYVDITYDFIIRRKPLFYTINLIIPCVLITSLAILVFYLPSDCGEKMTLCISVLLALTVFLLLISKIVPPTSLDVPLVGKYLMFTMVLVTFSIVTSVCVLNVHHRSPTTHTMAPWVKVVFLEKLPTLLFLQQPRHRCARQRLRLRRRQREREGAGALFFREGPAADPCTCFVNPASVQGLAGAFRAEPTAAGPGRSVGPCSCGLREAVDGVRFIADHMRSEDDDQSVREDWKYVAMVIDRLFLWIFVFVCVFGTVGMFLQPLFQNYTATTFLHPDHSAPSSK
The assay can be described thus: ^3 H-Nicotine binding/displacement, rat cerebral membranes. The following applies: ^3 H-nicotine 1.9 nM, rat cerebral membranes; read-out: IC50, Nicotine. Here is the method:
^3 H-Nicotine binding to rat cerebral membranes was performed according to modifications of the method of Flyn and Mash (J. Neurochem. 47:1948 (1986)). ^3 H-Nicotine (80 ci/mmol; New England Nuclear Corporation, Boston, Mass.) was used as the ligand for nicotinic acetylcholine receptor binding assays. All other reagents were purchased from the Sigma Chemical Co. (St. Louis, Mo.).
Male Sprague-Dawley rats (250-400 gm) were sacrificed by decapitation, the brains removed and the cerebral cortex dissected on ice. Synaptic membranes were prepared by homogenizing the cortical tissue in 20 volumes of ice-cold modified Tris buffer (50 mM Tris pH 7.4, 120 mM NaCl, 5 mM KCl, 2 mM EDTA, 1 mM PMSF) with a polytron (20 sec at setting 5-6) followed by centrifugation (15 min at 5,000×g) at 4° C. The resultant pellet was rehomogenized and centrifuged twice. The final pellet was resuspended in ice-cold assay buffer (50 mM Tris pH 7.4, 120 mM NaCl, 5 mM KCl, 2 mM CaCl2, 1 mM MgCl2) at a concentration of membrane equivalent to 1 gm wet weight cortex per 10 ml buffer. After protein determination the final membrane preparation was diluted with buffer to 3 mg protein/mi. This membrane preparation was used in either the fresh state or frozen (-70° C.) then thawed.
The binding assay is performed manually using 96-well plates, or using a Biomek automated work station (Beckman Instrument Co.). ^3 H-Nicotine was diluted in assay buffer to give a final concentration of 1.9 nM. The Biomek automated work station was programmed to automatically transfer 750 μl of assay buffer with ^3 H-nicotine, 230 μl of membrane preparation and 20 μl of solution containing the compound of interest in assay buffer, DMSO, ethanol:DMSO (1:1) or appropriate vehicle to the 96-well plate. Atropine was added to the incubation buffer at a final concentration of 3 μM to block binding to muscarinic acetylcholine receptor sites. The plates were maintained on ice for 60 min and the tissue-bound radioactivity was separated from the free by rapid filtration in a Brandel Harvester onto GF/C filters presoaked in 0.5% polyethyleneimine for at least 2 hr. The filters were washed with 4×2 ml of ice-cold assay buffer and filters were transferred to vials to which 4 ml of scintillation cocktail was added. The radioactivity was measured in a LS-6500 Beckman Liquid Scintillation Counter in an autodpm mode. Data were analyzed bylog-logit transformation or non-linear regression analysis (e.g., employing GraphPad Prism, available from GraphPad Software, San Diego, Calif.) to give IC50 values. Non-specific binding was defined by 10 μM cytisine.

For assay [7], the target named is muscarinic acetylcholine receptors. The assay can be described thus: ^3 H-QNB (quinuclidinyl benzilate) binding/displacement, rat cerebral membranes. The note with it: ^3 H-QNB 60 pM, rat cerebral membranes.
The mark [8] stands for this setting: 1 h, 0-60 min, read-out: Ambulation (cross overs), percent of change from control.
Setting [9] is: 1 h, 0-60 min, read-out: General Activity (beam breaks), percent of change from control.
Where [10] appears, read: 2 h, 60-120 min, read-out: Ambulation (cross overs), percent of change from control.
[11] abbreviates: 2 h, 60-120 min, read-out: General Activity (beam breaks), percent of change from control.

The structures appear in SMILES notation. Where a name gives a salt, the structure may show the parent alone. Read-outs that look alike come from different tables or passages of the source.

As for `CN1CCCC1c1cncc(-c2ccc(F)cc2)c1.O=C(O)/C=C/C(=O)O` (stereo not shown) [A = CH2; R^7 = CH3; R^5 = 4-fluorophenyl, 5-(4-Fluorophenyl)-3-(1-methyl-2-pyrrolidinyl) pyridine fumarate], in assay [1], the “percent fractional release, ^3 H-Dopamine, Striatum” value was determined as 1.96%. For the same compound, the “percent fractional release, ^3 H-Norepinephrine, Hippocampus” value (“percent fractional release … Hippocampus” for short) in assay [2] stood at 0.58%. In addition, the “percent fractional release, ^3 H-Norepinephrine, Thalamus” value (from here on “percent fractional release … Thalamus”) in assay [3] stood at 0.9%. In addition, in assay [4], the “percent fractional release, ^3 H-Norepinephrine, Prefrontal Cortex” value (“percent fractional release … Prefrontal Cortex” below) was found to be 1.23%. Further, the “percent fractional release, ^3 H-Dopamine, Olfactory Tubercles” value in assay [5] was 2.68%. For the same compound, the change in vivo at 20 mg/kg in the assay on rats (setting [8]) turned out to be 21%; in the assay on rats (setting [9]) it was 95%; in the assay on rats (setting [10]) it was 14%; in the assay on rats (setting [11]) it was 173%.
In the case of `CN1CCCC1c1cncc(-c2ccc(O)c(F)c2)c1.O=C(O)/C=C/C(=O)O` (stereo not shown) [R^5 = 3-fluoro-4-hydroxyphenyl, 5-(4-hydroxy-3-fluorophenyl)-3-(1-methyl-2-pyrrolidinyl)pyridine fumarate], the IC50 in assay [6] was determined as 0.029 µM; in assay [7], 35 µM. Also, in assay [1], the “percent fractional release, ^3 H-Dopamine, Striatum” value came to 3.33%. Also, the “percent fractional release … Hippocampus” value in assay [2] came out at 1.47%. Further, the “percent fractional release … Prefrontal Cortex” value in assay [4] is on record as 1.14%. Moreover, in assay [5], the “percent fractional release, ^3 H-Dopamine, Olfactory Tubercles” value was 7.07%. The change in vivo at 20 mg/kg was 49% in the assay with rats (setting [8]), 63% with rats (setting [9]), -14% in the assay with rats (setting [10]) and 26% with rats (setting [11]).
As to `CN1CCCC1c1cncc(-c2ccc(-c3ccccc3)cc2)c1` (stereo not shown) [R^5 = 4-biphenyl, 5-(4-Biphenyl)-3-(1-methyl-2-pyrrolidinyl)pyridine fumarate], the IC50 in assay [6] turned out to be 0.047 µM; in assay [7] it was 9.5 µM. Further, the “percent fractional release, ^3 H-Dopamine, Striatum” value in assay [1] was 2.2%. Besides, the “percent fractional release … Hippocampus” value in assay [2] was found to be 2.9%. Also, the “percent fractional release … Thalamus” value in assay [3] came to 1.1%. Further, in assay [4], the “percent fractional release … Prefrontal Cortex” value worked out at 3.4%. In assay [5], the “percent fractional release, ^3 H-Dopamine, Olfactory Tubercles” value is reported as 6.3%. For the same compound, the change in vivo at 20 mg/kg is -9% in the assay with rats (setting [8]), -17% in the assay with rats (setting [9]), 73% in the assay with rats (setting [10]) and 98% with rats (setting [11]).
For the compound `CN1CCCC1c1cncc(-c2ccc(O)cc2)c1.O=C(O)/C=C/C(=O)O` (stereo not shown) [R^5 = 4-hydroxyphenyl, 5-(4-Hydroxyphenyl)-3-(1-methyl-2-pyrrolidinyl)pyridine fumarate], the IC50 is 0.0054 µM in assay [6] and 19.1 µM in assay [7]. Further, the “percent fractional release, ^3 H-Dopamine, Striatum” value in assay [1] is 3.73%. In addition, the “percent fractional release … Hippocampus” value in assay [2] is 3.03%. The “percent fractional release … Thalamus” value in assay [3] was 2.3%. Further, the “percent fractional release … Prefrontal Cortex” value in assay [4] is recorded as 3.16%. Besides, in assay [5], the “percent fractional release, ^3 H-Dopamine, Olfactory Tubercles” value amounted to 6.62%. Moreover, the change in vivo at 20 mg/kg stood at 74% in the assay with rats (setting [8]), 96% in the assay on rats (setting [9]), 110% with rats (setting [10]) and 7% with rats (setting [11]).
For the compound `Cc1ccc(-c2cncc(C3CCCN3C)c2)cc1.O=C(O)/C=C/C(=O)O` (stereo not shown) [R^5 = 4-methylphenyl, 5-(4-Methylphenyl)-3-(1-methyl-2-pyrrolidinyl)pyridine fumarate], the figures for the IC50 in assay [6] and in assay [7] were 0.031 µM and 14 µM, respectively. Further, the “percent fractional release, ^3 H-Dopamine, Striatum” value in assay [1] worked out at 0.74%. Further, the “percent fractional release … Hippocampus” value in assay [2] stood at 0.52%. Further, in assay [3], the “percent fractional release … Thalamus” value came to 0.31%. Also, in assay [5], the “percent fractional release, ^3 H-Dopamine, Olfactory Tubercles” value is given as 1.0%.
Turning to `COc1ccc(-c2cncc(C3CCCN3C)c2)cc1.O=C(O)/C=C/C(=O)O` (stereo not shown) [R^5 = 4-methyoxyphenyl, 5-(4-Methoxyphenyl)-3-(1-methyl-2-pyrrolidinyl)pyridine fumarate], the IC50 in assay [6] was 0.018 µM; in assay [7], 37.7 µM. Also, the “percent fractional release, ^3 H-Dopamine, Striatum” value in assay [1] is recorded as 2.1%. In addition, the “percent fractional release … Hippocampus” value in assay [2] was 0.99%. In addition, in assay [3], the “percent fractional release … Thalamus” value was found to be 0.52%. The “percent fractional release … Prefrontal Cortex” value in assay [4] is reported as 1.04%. Moreover, the “percent fractional release, ^3 H-Dopamine, Olfactory Tubercles” value in assay [5] came out at 4.0%. Also, the change in vivo at 20 mg/kg amounted to 58% in the assay with rats (setting [8]), 83% with rats (setting [9]), 31% in the assay with rats (setting [10]) and 22% in the assay on rats (setting [11]).

(Values after US5677459A, “Methods for the preparation of modulators of acetylcholine receptors” (Sibia Neurosciences, Inc., priority 1995, dated 1997).)
